Measured values: patent publication US7723058B2, “Test system for the determination of in-vivo active hemostasis proteases in biological fluids and/or the usage thereof to determine the in-vivo activation of hemostasis” (priority 2001, dated 2010)
Where a SMILES comes first, the peptide text is derived from it. [ ]: non-standard residue; d: D form. The star is where a group is joined. dChg = N[C@@H](C(=O)O)C1CCCCC1; pNA = O=[N+]([O-])c1ccc(N*)cc1

Columns and labels:
Format in all cases: biochemical
Control Plasma N® (CPN) = assay: Comparison of different CPC-approaches; details: CPN; approaches B) and C)
Experimental: For n=22 citrated plasmas of patients and the Control Plasma N® (CPN) the following CPC-approaches were performed, 2-step-approaches A, B, C and 1-step-approaches D, E, F. • A) 50 μl Plasma+25 μl Pathromtin SL® (SiO2) • B) 50 μl Plasma+25 μl Pathromtin® (kaolin, in H2O twofold diluted) • C) 50 μl Plasma+25 μl Neothromtin® (ellagic acid)
3 min RT time of activation; +25 μl 1.7 mM HD-CHG-Ala-Arg-pNA, 750 mM arginine, 6.4 g/l EDTA, pH 8.7 • D) 50 μl Plasma+25 μl 1.7 mM CH3SO2-D-CHG-Gly-Arg-pNA • E) 50 μl Plasma+13 μl 1.5 M arginine, pH 8.7, +50 μl 1.7 mM CH3SO2-D-CHG-Gly-Arg-pNA • F) 50 μl Plasma+25 μl 1.7 mM HD-CHG-Ala-Arg-pNA in H2O+25 μl Pathromtin SL®
Determination of delta A at 405 nm (RT). The respective changes in extinction were correlated with each other. Result: Pathromtin SL®-2-step-CPC correlated with Pathromtin SL®-1-step-CPC with r=0.798 (delta A/13 min (RT) for CPN in 2-step-CPC=354 mA; delta A/2 min (RT) for CPN-547 mA, i.e. in the 1-step-CPC a […] higher Thrombin-Like Activity is generated compared with the 2-step-CPC; the corresponding values for approaches B) and C) are approx. 30% or 20% lower, respectively. […] Thus, even in arginine-stabilized plasma the amidolytic activity against CH3SO2-D-CHG-Gly-Arg-pNA can reliably be determined, what is valid for chromogenic substrates with a CH3SO2-group.

normal plasma (citrated) = assay: Optimization of the test concentration of contact phase activator in the CPC
Experimental: To optimize the contact phase activator in the CPC 100 μl • a) Neothromtin® (0.6 g/l ellagic acid (3 ml vial Dade Behring in 1.5 ml H2O) • b) Pathromtin® (5 g/l Kaolin, Dade Behring) • c) Pathromtin SL® (SiO2, Dade Behring) in 1:1, 1:2, 1:4, 1:8, 1:16, 1:32, 1:64, 1:128 dilution with H2O or for control 100 μl H2O were incubated with 100 μl 1.5 mmol/l HD-CHG-Ala-Arg-pNA in PBS and with 100 μl normal plasma (citrated) for 4 min (RT). The increase In extinction (405 nm)/4 min was determined.

normal plasma = assay: Inhibition of the 1-step CPC by arginine; details: plasmatic concentrations of arginine above 100 mM
Experimental: The CPC-test was performed in the 1-step mode as follows: 100 μl normal plasma, containing increasing concentrations of arginine (0-300 mM), pH 8.7 were incubated with 50 μl 1.7 mM HD-CHG-Ala-Arg-pNA in aqua dest. and 50 μl Pathromtin SL®, The increase in absorbance/t (t=0-10 min RT) was determined. Result: at plasmatic concentrations of arginine above 100 mM the Pathromtin SL®-CPC is decreased to 0% (compared to a normal plasma without arginine=100%),

[1] = Standardization of GACA with a pure enzyme-reagent / FEIBA; details: pure enzyme in 500 mM arginine, 2% Hämaccel, 0.1% Triton X 100
Experimental: The GACA was performed with 100 μl pure bovine thrombin (0-18 mlU/ml; DadeBehring), pure bovine Factor Xa (0-150 pkat/ml) or a Factor-Eight-Inhibitor-Bypassing-Activity-concentrate (0-2.6 units/ml; FEIBA®, Immuno, Wien) in 500 mM arginine, 2% Hämaccel®, 0.1% Triton X 100® (substrate here=HD-CHG-Ala-Arg-pNA. Additional samples were Control Plasma N® (CPN, DadeBehring) or CPN supplemented with FEIBA (0-2.6 units/ml). The incubation was varied from 0 to 4 h. The respective change in extinction was measured. Result: There appears a linear relationship between the thrombin- or factor Xa-concentration used and the resulting change in extinction, and also between incubation time and change in extinction. 6 mlU/ml IIa or 45 pkat/ml Xa result in a change in extinction, that corresponds to that of normal plasma (100% GACA). Thus, the GACA can be calibrated and standardized with pure thrombin- or factor Xa-reagent. CPN with 2.6 units/ml FEIBA has a GACA-value of approx. 200%, i.e. this addition of FEIBA to CPN increases the GACA-value from 100% to […].

[2] = tested on: normal EDTA-Plasma supplemented with bovine thrombin (pathoplasma); assay: GACA, optimization of the concentration of substrate, pathoplasma
Experimental: Before and after the incubation the extinction at 405 nm was determined.
The ratio of the extinctions of pathoplasma and normal plasma approximates the value of 1 at final substrate concentrations >1.5 mM. The higher this value the more specific is the assays for pathologic activation of hemostasis, here imitated by addition of 120 mlU/ml bovine thrombin. This ratio reaches maximal values at final substrate concentrations ≦1 mM. However, the maximal change in extinction decreases at low substrate concentrations, especially at substrate concentrations below 0.3 mM, i.e. substrate exhaustion occurs. Therefore the final substrate concentration in the GACA should be between 0.3 mM and 1.0 mM, preferentially between 0.5 mM and 0.8 mM, particularly at 0.56 mM. At this final substrate concentration the assay is very specific for activation of hemostasis, and consequently the determination of CPC (approach B) can be neglected where appropriate. Thus, the GACA-value corresponds to the uGACA-value at a final substrate concentration of up to 0.8 mM, i.e. GACA=approach A (without correction is by approach B). After addition of thrombin to EDTA-plasma 90% of thrombin is inactivated, in the GACA only 10% of the added enzyme activity can be detected.

bovine thrombin = target: T1, bovine thrombin (Bos taurus, UniProt P00735); assay: Determination of the Km-value for thrombin in plasma; details: thrombin in plasma after addition of 120 mlU/ml thrombin; 37° C.; read-out: substrate concentration at halfmaximal velocity (Km-value)
T1 construct: activity of thrombin in plasma after addition of 120 mlU/ml thrombin (F IIa); purchased DadeBehring
Experimental: 1. Normal EDTA-plasma with 250 mM arginine, pH 8.7, and 2. normal EDTA-plasma, supplemented with 120 mlU/ml bovine thrombin and 30 min thereafter with 250 mM arginine, pH 8.7, were incubated with 50 μl HD-CHG-Ala-Arg-pNA (0-6.67 mM final) in aqua dest, Delta A/3 h (37° C.) was measured and the value of 1. was subtracted from the value of 2. The resulting difference corresponds to the activity of thrombin in plasma after addition of 120 mlU/ml thrombin (F IIa). Result the maximal enzyme velocity is 800 mA/3 h the substrate concentration at halfmaximal velocity (Km-value) is 0.3 mM.

CPN = assay: Aprotinin titration in CPN; details: 50 min 37° C.
Experimental: (§1) 25 μl plasma of a pancreatitis-patient (citrated), 25 μl CPN, 25 μl 36 pkat/ml bovine Factor Xa in PBS, 0.1% Triton X 100®, were incubated with 25 μl assay buffer, containing 600 mM NaHCO3, ph 8.7 with and without 600 mM arginine, 25 μl 25 mM chloramines T®, 25 μl 3 mM N-α-Z-D-Arg-Gly-Arg-pNA 2HCl (S-2765®; Chromogenix, Mölndal, Sweden) and 25 μl Aprotinin (0, 2, 20, 200, 2000, 20000 KIU/ml) for 50 min at 37° C. and the increase in extinction at 405 nm during this incubation time was determined with a microtiterplate-photometer.

active trypsin = assay: Detection of active trypsin in plasma, aprotinin titration, pancreatitis plasma; details: 50 min 37° C.
Experimental: as §1

bovine Factor Xa = target: T2, bovine Factor Xa (Bos taurus, UniProt P00743); assay: Aprotinin on pure factor Xa; details: 36 pkat/ml bovine Factor Xa; substrate S-2765
T2 construct: 25 μl 36 pkat/ml bovine Factor Xa in PBS
T2 sequence (P00743 234-492 limits assumed): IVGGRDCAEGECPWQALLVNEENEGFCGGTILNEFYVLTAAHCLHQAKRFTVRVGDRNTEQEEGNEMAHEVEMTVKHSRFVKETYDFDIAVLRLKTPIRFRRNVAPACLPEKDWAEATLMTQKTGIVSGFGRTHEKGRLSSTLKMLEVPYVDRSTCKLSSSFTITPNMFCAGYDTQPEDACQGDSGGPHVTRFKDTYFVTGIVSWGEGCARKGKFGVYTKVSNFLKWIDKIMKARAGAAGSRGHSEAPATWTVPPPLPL
T2 sequence (P00743 41-180 partner limits assumed): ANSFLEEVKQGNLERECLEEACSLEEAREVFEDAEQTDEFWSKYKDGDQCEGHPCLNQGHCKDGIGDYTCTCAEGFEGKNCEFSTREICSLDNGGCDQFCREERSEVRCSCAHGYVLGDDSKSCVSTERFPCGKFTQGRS
Experimental: as §1, with “[…],” for “25 μl plasma of a pancreatitis-patient (citrated), 25 μl CPN, 25 μl 36 pkat/ml bovine Factor Xa in PBS,”

[3] = 25 μl 2 KIU/ml, absence of arginine
[4] = 25 μl 2 KIU/ml, presence of arginine
[5] = 25 μl 20 KIU/ml, absence of arginine
[6] = 25 μl 20 KIU/ml, presence of arginine
[7] = 25 μl 200 KIU/ml, absence of arginine
[8] = 25 μl 200 KIU/ml, presence of arginine
[9] = 25 μl 2000 KIU/ml, absence of arginine
[10] = 25 μl 2000 KIU/ml, presence of arginine
[11] = 25 μl 20000 KIU/ml, absence of arginine
[12] = 25 μl 20000 KIU/ml, presence of arginine

Q: Which “2-step-CPC value lower than with Pathromtin SL®” value (Control Plasma N® (CPN)) does the source give for O=c1oc2c(O)c(O)cc3c(=O)oc4c(O)c(O)cc1c4c23 [ellagic acid] here?
A: Its value is roughly 20%.

Q: What about the “test concentration at optimal activity of protease” value (normal plasma (citrated); CPC, 4 min RT) of the same compound?
A: Its value is 0.05 g/L.

Q: What about the “delta A” value (normal plasma (citrated); at optimal test concentration of contact phase activator, 405 nm, RT) of the same compound?
A: Its value is 1443 mA/4 min.

Q: For N=C(N)NCCC[C@H](N)C(=O)O [arginine], which “Pathromtin SL®-CPC compared to a normal plasma without arginine=100%” value (normal plasma) is on record?
A: Its value is 0%.

Q: For “thrombin: pure bovine thrombin (DadeBehring)”, which “concentration giving a change in extinction that corresponds to normal plasma (100% GACA)” value [1] is on record?
A: Its value is 6 mlU/ml.

Q: What about the “thrombin inactivated after addition to EDTA-plasma” value [2] of the same compound?
A: The value was 90%.

Q: And the “added enzyme activity that can be detected in the GACA” value ([2]; after addition of thrombin to EDTA-plasma)?
A: The value was 10%.

Q: With C[C@H](NC(=O)[C@H](N)C1CCCCC1)C(=O)N[C@@H](CCCNC(=N)N)C(=O)Nc1ccc([N+](=O)[O-])cc1 [HD-CHG-Ala-Arg-pNA, HD-CHG-Ala-Arg-pNA.2AcOH] (H-[dChg]-Ala-Arg-pNA) as the compound, how does the Km (bovine thrombin) read?
A: Its Km is 300 µM.

Q: With aprotinin as the compound, how does the “increase in extinction in the CPN” value (CPN; [3]) read?
A: Its value is 134 mA.

Q: What about the “increase in extinction in the CPN” value (CPN; [4]) of the same compound?
A: Its value is 133 mA.

Q: What about the “increase in extinction in the CPN” value (CPN; [5]) of the same compound?
A: Its value is 135 mA.

Q: What about the “increase in extinction in the CPN” value (CPN; [6]) of the same compound?
A: The value was 126 mA.

Q: And the “increase in extinction in the CPN” value (CPN; [7])?
A: Its value is 108 mA.

Q: And the “increase in extinction in the CPN” value (CPN; [8])?
A: Its value is 126 mA.

Q: And the “increase in extinction in the CPN” value (CPN; [9])?
A: Its value is 118 mA.

Q: And the “increase in extinction in the CPN” value (CPN; [10])?
A: Its value is 125 mA.

Q: What about the “increase in extinction in the CPN” value (CPN; [11]) of the same compound?
A: Its value is 124 mA.

Q: And the “increase in extinction in the CPN” value (CPN; [12])?
A: The value was 123 mA.

Q: What about the increase of extinction (active trypsin; [3]) of the same compound?
A: The increase of extinction was 733 mA.

Q: And the increase of extinction (active trypsin; [4])?
A: The increase of extinction was 778 mA.

Q: What about the increase of extinction (active trypsin; [5]) of the same compound?
A: Its increase of extinction is 715 mA.

Q: What about the increase of extinction (active trypsin; [6]) of the same compound?
A: The increase of extinction was 709 mA.

Q: And the increase of extinction (active trypsin; [7])?
A: Its increase of extinction is 531 mA.

Q: What about the increase of extinction (active trypsin; [8]) of the same compound?
A: Its increase of extinction is 685 mA.

Q: And the increase of extinction (active trypsin; [9])?
A: Its increase of extinction is 294 mA.

Q: And the increase of extinction (active trypsin; [10])?
A: Its increase of extinction is 497 mA.

Q: What about the increase of extinction (active trypsin; [11]) of the same compound?
A: Its increase of extinction is 103 mA.

Q: And the increase of extinction (active trypsin; [12])?
A: Its increase of extinction is 259 mA.

Q: And the “inhibition of pure factor Xa” value (bovine Factor Xa)?
A: Its value is “not inhibited”.
